Two compounds from patent publication US20220184019A1, “Use of chlorogenic acid in preparation of drug for preventing and treating ocular inflammation” (SICHUAN JIUZHANG BIOLOGICAL SCIENCE AND TECHNOLOGY CO., LTD, priority 2017, published 2022) can be followed below.

“Also recorded” adds a separate entry of the source. Marks after values point to notes of the source that are not given here.

In assay [1] the test system is scleritis. Description: Clinical efficacy on scleritis: inflammation control in one month. In kind it is in vivo, patients. As to conditions: for Cure / Improved / Ineffective / Total effective rate: scleritis patients, n=10 per group, inflammation control in one month. The procedure: (§1) Twenty patients with scleritis were randomly divided into chlorogenic acid test group (10 patients) and control group (10 patients). Patients in chlorogenic acid test group were given chlorogenic acid at a dose of 3 mg/(kg·d) by intramuscular injection. The patients in the control group were given dexamethasone sodium phosphate (5 mg/d) by intravenous injection, and after continuous observation and treatment for 5 days, they initially received oral […] (1 mg/(kg·d)). Both groups were continuously administrated for one month.
(§2) According to the random table, 20 patients with scleritis were randomly divided into two groups, namely chlorogenic acid test group and dexamethasone sodium phosphate control group. Among 10 patients of chlorogenic acid control group, there were one male and 9 females, with an average age of (30.5±5.1) years old and an average course of disease (5.1±0.3). In the dexamethasone sodium phosphate control group, there were one male and 9 females, with an average age of (31.5±4.7) years old and an average course of disease (5.5±0.3). For both groups of patients, there was no statistically significant difference (P>0.05) in the clinical data including age, gender, and disease course, having comparability.
(§3) (1) Inquiring the medical history in detail, performing detailed examinations such as slit lamp examination, fundus examination, ultrasound examination, eye imaging, etc., and making a clear diagnosis of the patient with scleritis; (2) No glucocorticoid and chlorogenic acid contraindications; (3) Patients having non-microbial infectious scleritis; (4) Patients having no obvious abnormalities in blood routine, electrolytes, liver function, kidney function, blood pressure, blood sugar, and so on.
(§4) (1) Patients with microbial infectious scleritis and systemic infectious diseases; (2) Episcleritis; (3) Patients allergic to glucocorticoids or having toxic side effects due to administration of glucocorticoids; (4) Pregnant women and lactating women as well as babies; (5) Patients with moderate hypertension, severe cardiovascular and cerebrovascular diseases, diabetes, as well as liver and kidney function impairment; (6) Patients having poor compliance and refusing regular review and follow-up.
(§5) Patients in chlorogenic acid test group were given chlorogenic acid at a dose of 3 mg/(kg·d) by intramuscular injection. The patients in the control group were given dexamethasone sodium phosphate at 5 mg/day by intravenous infusion, and after continuous observation and treatment for 3 days, they were changed to oral prednison (1 mg/(kg·d)). Both groups were continuously administrated for one month.
(1) Cure: the eye symptoms and signs completely disappeared after treatment; (2) Improved: the eye symptoms and signs improved after treatment; (3) Ineffective: the inflammation was not controlled, or the situation was the same as before treatment.

Assay [2] has as its system scleritis. Description: Clinical efficacy on scleritis: vision recovery in one month (logarithmic visual acuity chart). In kind it is in vivo, patients. As to conditions: for Ineffective / Total effective rate / Improved / Significantly improved vision: scleritis patients, n=10 per group, vision recovery in one month; for Improved: improving 1-2 lines; for Significantly improved vision: improving 3 lines or more. How it is done:
as §1, §2, §3, §4, §5
(1) After treatment, the same logarithmic visual acuity chart (the best corrected visual acuity was measured for those with ametropia) was used to detect and record the vision. Significant improvement: improving 3 lines or more; improvement: improving 1-2 lines; ineffective: the vision was not improved or even decreased.

Assay [3] relates to experimental autoimmune uveitis (EAU). Description: Therapeutic effect on IRBP-induced experimental autoimmune uveitis in rats; slit-lamp ocular inflammation score (Caspi clinical grading). Format: in vivo, SD rats. The settings on record: 20 mg/kg intraperitoneal; for Scores of ocular inflammation in rats: EAU SD rats.
Setting [4] is: 3 mg/(kg·d) intramuscular, one month, vs dexamethasone sodium phosphate control, P<0.05.

`C[C@@H]1C[C@H]2[C@@H]3CCC4=CC(=O)C=C[C@]4(C)[C@@]3(F)[C@@H](O)C[C@]2(C)[C@@]1(O)C(=O)COP(=O)(O)O` [Control group, dexamethasone sodium phosphate, reference compound]: in the assay on scleritis [1], the Cure is given as 2 (20%) cases (%), the Improved is recorded as 3 (30%) cases (%), the Ineffective is listed as 5 (50%) cases (%) and the Total effective rate is 5 (50%) cases (%). Moreover, in the assay with scleritis [2], the Ineffective is 4 (40%) case (%), the Total effective rate is listed as 60 (60%) case (%), the Improved is 3 (30%) case (%) and the Significantly improved vision is recorded as 3 (30%) case (%).
With `O=C(/C=C/c1ccc(O)c(O)c1)O[C@@H]1C[C@](O)(C(=O)O)C[C@@H](O)[C@H]1O` [Chlorogenic acid], the “Inflammation control effect versus control group” value in the assay with scleritis [1] (setting [4]) was “significantly better than the control group”. Further, the Cure with scleritis [1] was 5 (50%)* cases (%). For the same compound, the results for the Improved with scleritis [1] and in the assay with scleritis [2] were 3 (30%) cases (%) and 3 (30%) case (%), respectively. Further, the Ineffective is reported as 2 (20%) cases (%) in the assay with scleritis [1] and 1 (10%) case (%) in the assay on scleritis [2]. Besides, the Total effective rate is given as 8 (80%)* cases (%) with scleritis [1] and 90 (90%)* case (%) in the assay on scleritis [2]. Further, in assay [3] (vs normal saline control, P<0.05), the “Ocular inflammation (score) compared with the control group at the same time point” value is listed as “significantly reduced; also recorded: significantly lower”. The “Scores of ocular inflammation in rats” value in assay [3] (day 6 after immunization) came out at 0.6 ± 0.2; in assay [3] (day 7 after immunization), 0.6 ± 0.2; in assay [3] (day 8 after immunization) it was 0.7 ± 0.4; in assay [3] (day 9 after immunization), 1.1 ± 0.4; in assay [3] (day 10 after immunization), 1.3 ± 0.6; in assay [3] (day 11 after immunization), 1.9 ± 0.6. Besides, the “Scores of ocular inflammation in rats” value in assay [3] (day 12 after immunization) is on record as 2.0 ± 0.4; in assay [3] (day 13 after immunization) it was 1.3 ± 0.6; in assay [3] (day 14 after immunization), 1.1 ± 0.3; in assay [3] (day 15 after immunization), 0.5 ± 0.3; in assay [3] (day 16 after immunization), 0.4 ± 0.3; in assay [3] (day 17 after immunization) it was 0.3 ± 0.1. Besides, the “Scores of ocular inflammation in rats” value in assay [3] (day 18 after immunization), in assay [3] (day 19 after immunization) and in assay [3] (day 20 after immunization) was 0.3 ± 0.1 each time. Besides, the “Vision recovery versus control group” value in the assay with scleritis [2] (setting [4]) is “significantly better than the control group”. In addition, in the assay on scleritis [2], the Significantly improved vision was 6 (60%)* case (%).
